Structures can show the parent of a compound that is named as a salt.
system: IL-2 production; test: Inhibition of IL-2 production in PHA-activated Jurkat cells (ELISA); assay type: cell-based; conditions: Homo sapiens, Jurkat, 20 h, PHA 2.5 μg/mL, IL-2 ELISA
Description: Jurkat cells were placed in a 96 well plate (0.5 million cells per well in 1% FBS medium) then a test compound of this invention was added at different concentrations. After 10 minutes, the cells were activated with PHA (final concentration 2.5 μg/mL) and incubated for 20 hours at 37° C. under CO2. The final volume was 200 μL. Following incubation, the cells were centrifuged and the supernatants collected and stored at −70° C. prior to assaying for IL-2 production. A commercial ELISA kit (IL-2 Eli-pair, Diaclone Research, Besancon, France) was used to detect production of IL-2, from which dose response curves were obtained. The IC50 value was calculated as the concentration at which 50% of maximum IL-2 production after stimulation was inhibited versus a non-stimulation control.

| IC50 | Compound |
| --- | --- |
| 182 nM | CC1=C(c2ccc(NC(=O)c3c(F)cccc3F)cc2)CN(C(=O)C2CC2)CC1 [Compound 63, 2,6-Difluoro-N-[4-(1-cyclopropylcarbonyl-4-methyl-1,2,5,6-tetrahydro-pyridin-3-yl)-phenyl]-benzamide] |
| 95.3 nM | CC1=C(c2ccc(NC(=O)c3c(F)cccc3F)cc2)CN(c2nc3ccccc3o2)CC1 [Compound 68, 2,6-Difluoro-N-[4-(1-benzooxazol-2-yl-4-methyl-1,2,5,6-tetrahydro-pyridin-3-yl)-phenyl]-benzamide] |
| > 1000 nM | CC1=C(c2ccc(NC(=O)c3c(F)cccc3F)cc2)CN(C#N)CC1 [Compound 58, 2,6-Difluoro-N-[4-(1-cyano-4-methyl-1,2,5,6-tetrahydro-pyridin-3-yl)-phenyl]-benzamide] |
| 962 nM | CC1=C(c2ccc(NC(=O)c3c(F)cccc3F)cc2)CN(C(=O)c2cccnc2)CC1 [Compound 64] |
| 226 nM | CC1=C(c2ccc(NC(=O)c3c(F)cccc3F)cc2)CCN(c2nccs2)C1 [Compound 91, 2,6-Difluoro-N-[4-(1-thiazol-2-yl-3-methyl-1,2,5,6-tetrahydro-pyridin-4-yl)-phenyl]-benzamide] |
| 16.2 nM | COC(=O)N1CCC(C)=C(c2ccc(NC(=O)c3c(F)cccc3F)cc2)C1 [Compound 49, 2,6-Difluoro-N-[4-(1-methoxycarbonyl-4-methyl-1,2,5,6-tetrahydro-pyridin-3-yl)-phenyl]-benzamide] |
| 227 nM | O=CC1=C(c2ccc(NC(=O)c3c(F)cccc3F)cc2)CN(c2nccs2)CC1 [Compound 78, 2,6-Difluoro-N-[4-(1-thiazol-2-yl-4-formyl-1,2,5,6-tetrahydro-pyridin-3-yl)-phenyl]-benzamide] |
| 35 nM | CC1=C(c2ccc(NC(=O)c3c(F)cccc3F)nc2)CN(c2nccs2)CC1 [Compound 72, 2,6-Difluoro-N-[5-(1-thiazol-2-yl-4-methyl-1,2,5,6-tetrahydro-pyridin-3-yl)-pyridin-2-yl]-benzamide, hydrochloride] |
| 7.7 nM | CC1=C(c2ccc(NC(=O)c3ccncc3F)cc2)CN(c2nccs2)CC1 [Compound 65, N-[4-(1-thiazol-2-yl-4-methyl-1,2,5,6-tetrahydro-pyridin-3-yl)-phenyl]-3-fluoro-isonicotinamide] |
| 98.5 nM | CC1=C(c2ccc(NC(=O)c3c(F)cccc3F)cc2)CN(c2nc(C)co2)CC1 [Compound 80, 2,6-Difluoro-N-{4-[1-(4-methyl-oxazol-2-yl)-4-methyl-1,2,5,6-tetrahydro-pyridin-3-yl]-phenyl}-benzamide] |
| 99.3 nM | CC1=C(c2ccc(NC(=O)c3ncncc3C)cc2)CN(c2nccs2)CC1 [Compound 77, 5-Methyl-pyrimidine-4-carboxylic acid [4-(1-thiazol-2-yl-4-methyl-1,2,5,6-tetrahydro-pyridin-3-yl)-phenyl]-amide] |
| 42.1 nM | CC1=C(c2ccc(NC(=O)c3ccncc3F)cc2)CN(c2ccccn2)CC1 [Compound 66, N-[4-(1-pyridin-2-yl-4-methyl-1,2,5,6-tetrahydro-pyridin-3-yl)-phenyl]-3-fluoro-isonicotinamide] |
| 7.2 nM | CC1=C(c2ccc(NC(=O)c3c(F)cccc3F)cc2)CCCC1 [Compound 25, N-[4-(2-methyl-cyclohex-1-enyl)-phenyl]-2,6-difluoro-benzamide] |

Further lines, the compound ahead of its results:

| Compound | IC50 |
| --- | --- |
| CCOC(=O)C1=C(c2ccc(NC(=O)c3c(F)cccc3F)cc2)CCN(C(=O)OC)CC1 [Compound 39, 2,6-Difluoro-N-[4-(1-methoxycarboxyl-5-ethoxycarbonyl-2,3,6,7-tetrahydro-1H-azepin-4-yl)-phenyl]-benzamide] | 380 nM |
| O=C(Nc1ccc(C2=C(c3cnco3)CCCC2)cc1)c1ccncc1F [Compound 24, N-[4-(2-oxazol-5-yl-cyclohexen-1-yl)-phenyl]-3-fluoroisonicotinamide] | 68 nM |
| O=C(Nc1ccc(C2=C(Cl)CCCC2)cc1)c1c(F)cccc1F [Compound 21, N-[4-(2-chloro-cyclohex-1-enyl)-phenyl]-2,6-difluoro-benzamide] | 23.2 nM |
| COc1ccc(C(=C(C)C)c2ccc(NC(=O)c3c(F)cccc3F)cc2)cc1 [Compound 93, 2,6-Difluoro-N-{4-[2-methyl-1-(4-methoxy-phenyl)-propenyl]-phenyl}-benzamide] | 54.6 nM |
| COC(=O)N1CCC(C(C)C)=C(c2ccc(NC(=O)c3c(F)cccc3F)cc2)C1 [Compound 42, 2,6-Difluoro-N-[4-(1-methoxycarbonyl-4-isopropyl-1,2,5,6-tetrahydro-pyridin-3-yl)-phenyl]-benzamide] | 11.9 nM |
| CC1=C(c2ccc(NC(=O)c3ccncc3F)cc2)CN(CC2CC2)CC1 [Compound 69, N-[4-(1-cyclopropylmethyl-4-methyl-1,2,5,6-tetrahydro-pyridin-3-yl)-phenyl]-3-fluoro-isonicotinamide] | > 1000 nM |
| CC1=C(c2ccc(NC(=O)c3ccncc3F)cc2)CN(c2cncnc2)CC1 [Compound 90, N-[4-(1-pyrimidin-5-yl-4-methyl-1,2,5,6-tetrahydro-pyridin-3-yl)-phenyl]-3-fluoro-isonicotinamide] | 126 nM |
| CCOC(=O)N1CCC(C)=C(c2ccc(NC(=O)c3ccncc3C)cc2)C1 [Compound 48, N-[4-(1-ethoxycarbonyl-4-methyl-1,2,5,6-tetrahydro-pyridin-3-yl)-phenyl]-3-methyl-isonicotinamide] | 156 nM |
| COc1ccccc1C(=C(C)C)c1ccc(NC(=O)c2c(F)cccc2F)cc1 [Compound 95, 2,6-Difluoro-N-{4-[2-methyl-1-(2-methoxy-phenyl)-propenyl]-phenyl}-benzamide] | 156 nM |
| C=C(C)[C@@H]1CCC(C)=C(c2ccc(NC(=O)c3ccncc3F)cc2)C1 [Compound 4, 3-Fluoro-N-[4-(2-methyl-5(R)-isopropenyl-cyclohex-1-enyl)-phenyl]-isonicotinamide] | 7 nM |
| CCOC(=O)C1=C(c2ccc(NC(=O)c3c(F)cccc3F)cc2)CCC1 [Compound 30, 2-[4-(2,6-Difluoro-benzoylamino)phenyl]-cyclopent-1-enecarboxylic acid ethyl ester] | 300 nM |
| C=CCOC(=O)N1CCC(C)=C(c2ccc(NC(=O)c3ccncc3F)cc2)C1 [Compound 53, N-[4-(1-allyloxycarbonyl-4-methyl-1,2,5,6-tetrahydro-pyridin-3-yl)-phenyl]-3-fluoro-isonicotinamide] | 81.3 nM |
| CC1=C(c2ccc(NC(=O)c3ccncc3F)cc2)CN(C(=O)Oc2ccc([N+](=O)[O-])cc2)CC1 [Compound 52, N-{4-[1-(4-nitro-phenyloxycarbonyl)-4-methyl-1,2,5,6-tetrahydro-pyridin-3-yl]-phenyl}-3-fluoro-isonicotinamide] | 651 nM |
| COC(=O)N1CCC(C)=C(c2ccc(NC(=O)c3ccncc3C)cc2)C1 [Compound 103, N-[4-(1-methoxycarbonyl-4-methyl-1,2,5,6-tetrahydro-pyridin-3-yl)-phenyl]-3-methyl-isonicotinamide] | 150 nM |
| COc1cccc(C(=C(C)C)c2ccc(NC(=O)c3c(F)cccc3F)cc2)c1 [Compound 94, 2,6-Difluoro-N-{4-[2-methyl-1-(3-methoxy-phenyl)-propenyl]-phenyl}-benzamide] | 138 nM |
| CCOC(=O)N1CCC(C)=C(c2ccc(NC(=O)c3snnc3C)cc2)C1 [Compound 47, 4-Methyl-[1,2,3]thiadiazole-5-carboxylic acid [4-(1-ethoxycarbonyl-4-methyl-1,2,5,6-tetrahydro-pyridin-3-yl)-phenyl]-amide] | 411 nM |
| CC1=C(c2ccc(NC(=O)c3ccncc3F)cc2)CN(c2nnnn2C)CC1 [Compound 85, N-{4-[1-(1-methyl-1H-tetrazol-5-yl)-4-methyl-1,2,5,6-tetrahydro-pyridin-3-yl]-phenyl}-3-fluoro-isonicotinamide] | 44.1 nM |
| C=C(C)[C@H]1CCC(C)=C(c2ccc(NC(=O)c3ccncc3C)cc2)C1 [Compound 3, 3-Methyl-N-[4-(2-methyl-5(S)-isopropenyl-cyclohex-1-enyl)-phenyl]-isonicotinamide] | 9 nM |
| CC1=C(c2ccc(NC(=O)c3cncnc3C)cc2)CCCC1 [Compound 27, 4-Methyl-pyrimidine-5-carboxylic acid [4-(2-methyl-cyclohex-1-enyl)-phenyl]-amide] | 38.9 nM |
| CCS(=O)(=O)N1CCC(C)=C(c2ccc(NC(=O)c3ccncc3C)cc2)C1 [Compound 60, N-[4-(1-ethanesulfonyl-4-methyl-1,2,5,6-tetrahydro-pyridin-3-yl)-phenyl]-3-methyl-isonicotinamide] | 229 nM |
| CC(C)=C(c1ccccc1)c1ccc(NC(=O)c2ccncc2C)cc1 [Compound 14, 3-Methyl-N-(4-(2-methyl-1-phenylprop-1-enyl)phenyl)-isonicotinamide] | 159 nM |
| O=CC1=C(c2ccc(NC(=O)c3c(F)cccc3F)cc2)CCCCC1 [Compound 37, 2,6-Difluoro-N-[4-(2-formyl-cyclohept-1-enyl)-phenyl]-benzamide] | 774 nM |
| CCC1=C(c2ccc(NC(=O)c3c(F)cccc3F)cc2)CCCC1 [Compound 29, N-[4-(2-ethyl-cyclohex-1-enyl)-phenyl]-2,6-difluoro-benzamide] | 17.4 nM |

same assay, conditions: Homo sapiens, PHA 2.5 μg/mL, 20 hours, IL-2 ELISA

| Compound | IC50 |
| --- | --- |
| CC1=C(c2ccc(NC(=O)c3c(F)cccc3F)cc2)CCN(Cc2ccccc2)C1 [Compound 19, N-(4-(1-benzyl-5-methyl-1,2,3,6-tetrahydropyridin-4-yl)phenyl)-2,6-difluorobenzamide] | 513 nM |

same assay, conditions: PHA 2.5 μg/mL, 20 hours, IL-2 ELISA, hydrochloride

| IC50 | Compound |
| --- | --- |
| 177 nM | CCOC(=O)N1CCC(C)=C(c2ccc(NC(=O)c3ccncc3C)cc2)C1 [Compound 50, N-[4-(1-ethoxycarbonyl-4-methyl-1,2,5,6-tetrahydro-pyridin-3-yl)-phenyl]-3-methyl-isonicotinamide, hydrochloride] |
